One test relates to ERK1/2 and RXR. As to the kind of experiment: Co-immunoprecipitation of ERK1/2 and RXR in myoblasts. The format is cell-based, mouse. The note with it: 1 uM, 4 hours, nuclear lysates. The procedure:
Co-immunoprecipitation (Co-IP). Primary myoblasts derived from gastrocnemius muscle were pooled from 10 mice and plated on 15 cm dishes and allowed to adhere for 24 hours. The following day, Bio-Amf2 media was replaced supplemented either with DMSO or 1 uM SCH772984. […] 1 mg of protein was used to immunoprecipitate ERK1/2 using 2 ug of ERK1/2Antibody (Sigma M7927). Rabbit IgG was used as a control. […] 1% of original volume of lysate loaded into IP reaction was loaded into the gel as input control. Membranes were blotted with RXR antibody (SCBT sc-553).

The subject of the next test is primary mouse myoblasts. As to the kind of experiment: MYOG positive nuclei in primary mouse myoblasts (immunofluorescence). The class given is cell-based. The note with it: 24 hours, ERKi in growth medium. As to the method: Isolation of and treatment of primary myoblasts. Primary mouse myoblasts were isolated from gastrocnemius muscle using trypsin-tissue dissociation. Briefly, muscle tissues were incubated in Trypsin B (0.25%, Biological Industries) and subjected to mechanical dissociation with a serological pipet. Supernatants were strained and centrifuged. Pellets were grown resuspended in BioAmf-2 media (Biological Industries, Israel) and plated on 10% Matrigel (BD Biosciences)-coated plates at 37° and 5% CO2. For all in vitro experiments, proliferation medium was Bio-Amf2 (Biological Industries, Israel) and Differentiation medium (DM) was DMEM 2% Horse Serum (HS) with 1% Pen/Strep. For fusion assays, cells were trypsinized with Trypsin C (0.05%, Biological Industries) and subjected to two rounds of preplating on uncoated plates to reduce the number of fibroblasts. Cells were plated at a density of 8×10^3 per well in 10% Matrigel-coated 96-well plates in proliferation medium for 24 hours. The following day, proliferation media was replaced either with proliferation media or with DM containing DMSO (Ctrl) or 1 μM ERK1/2 inhibitor (ERKi; SCH772984, Cayman Chemicals), […] RXR antagonist (RXRi; HX-531, Cayman Chemicals), […] Ryanodine receptor antagonist (RYRi; Dantrolene, Cayman Chemicals), 5 μM CaMKII inhibitor (CaMKIIi; KN93, Cayman Chemicals), or with DM for controls.
Immunofluorescence staining. First passage primary myoblasts isolated from various strains (indicated in figure legends) were plated in 96-well plates or chamber slides and treated as previously described. The cells were fixed with ice cold 4% PFA in PBS for 10 minutes, permeabilized with 0.5% Triton X-100 in PBS for 6 minutes, and blocked in PBS with 0.025% tween, 10% normal horse serum and 10% normal goat serum for 1 hour at room temperature. Primary antibody incubation was done in blocking buffer overnight at 4 degrees, with the following antibodies: Myosin Heavy Chain (MyHC, MF20, DSHB hybridoma supernatant 1:10, or MY-32 ABCAM ab51263 1:400), Myogenin (MYOG sc-13137 SCBT 1:200), pHistone 3 (PH3, ab47297 ABCAM 1:1000), Ki-67 (Cell Marque #275R), RYR (ab2868 ABCAM 1:100), and pCaMKII (SIGMA SAB4504356 1:100). Cells were washed 3 times in PBS with 0.025% tween and then incubated with appropriate secondary antibodies in PBS 1 hour. Where indicated, nuclei were either labeled with DAPI (SIGMA D9542, 5 ug/ml) or Hoechst 33342 (Thermo scientific #62249, 1:2000). Fixed cells at 24 hours post treatment with indicated inhibitors were imaged using the Nikon Eclipse Ti2 microscope (further described in microscopy section). All analysis was performed on at least 1000 nuclei. For fixed cells following the timecourse with ERKi or DM (FIG. 1B), images were captured with an inverted Olympus IX83 microscope (further details in microscopy section). All imaging analysis were performed on at least 1000 cells.

For the next test, the system named is bovine myoblasts. As to the kind of experiment: Immunofluorescence intensity of sarcomeric proteins in bovine myotubes. The note with it: 96 hours post-treatment. The format is cell-based. The procedure: Shown is immunofluorescence staining of the sarcomeric components of myosin heavy chain (MyHC), alpha-actinin, and Tropoinin T at 96 hours post treatment either with proliferation media (PM), differentiation media (DM), or with 1 uM SCH 772984 (ERKi).

In a further test the test system is primary bovine myoblasts. As to the kind of experiment: Fusion index of primary bovine myoblasts. The format is cell-based. The note with it: single administration of 0.5 uM, 72 hours post treatment. The procedure: Bovine myoblasts were seeded in equal number in 96-well plates and the following day treated either with PM, PM supplemented with 0.5 uM SCH 772984 (ERKi) or differentiation media (DM). Media was replenished daily either with fresh PM or DM (ERKi was not added again). At 72 hours post treatment, cells were fixed and stained for myosin heavy chain, and several fields per condition were imaged. Nuclei per fiber was quantified per field to result in a fusion index. For ovine myoblasts—equal number of cells were seeded in an 8 well chamber slide for 24 hours. The following day cells were treated with either with 1 uM SCH 772984 (ERKi) or differentiation media (DM), supplemented with 100 nM of Sir-Actin reagent, then incubated for 4 hours and then the slide was transferred to a heated and CO2 chambered microscope unit. Several fields of view were selected and live imaging was performed by capturing images of each field every 7 minutes. The series of images for each treatment over a period of 31 hours was stacked into a movie file using ImageJ.
Primary bovine myoblast isolation and treatment: bovine myoblasts were isolated from freshly slaughtered muscle cow muscle with collagenase type II. Following tissue dissociation, the cell suspension was grown for 3-4 days on 10% Matrigel coated plates. […]

Each structure is given as a SMILES string.

Take `O=C(Nc1ccc2[nH]nc(-c3ccncc3)c2c1)[C@@H]1CCN(CC(=O)N2CCN(c3ccc(-c4ncccn4)cc3)CC2)C1` [SCH772984]: the “RXR immunoprecipitated with ERK1/2 (interaction)” value in the test with ERK1/2 and RXR is given as “attenuated”. In the test on primary mouse myoblasts, the “Fraction of MYOG positive nuclei compared to DM” value is on record as “significantly higher”. Besides, the “Maturation markers (sarcomeric proteins MyHC, actinin, troponin signal intensity) compared to DM” value in the test with bovine myoblasts is listed as “increased”. The “Increase in fusion index compared to DM” value in the test with primary bovine myoblasts is reported as about 8 fold; in the test on primary bovine myoblasts (listed as ERKi), 6 fold.
